In publication PMC10210398, “Genomic, functional and structural analyses elucidate evolutionary innovation within the sea anemone 8 toxin family” (BMC Biology, 2023):
pKd: −log10 of the molar value.

Experiments:
hKV10.1 = experiment: Whole-cell patch-clamp, hKV10.1 in transiently transfected CHO cells; format: cell-based, human; details: 2 µM, KV10.1
Protocol: (§1) CHO and human embryonic kidney (HEK 293) cells were grown in DMEM-high glucose supplemented with 10% FBS, 2 mM L-glutamine, 100 U/mL penicillin-g, and 100 μg/mL streptomycin (Invitrogen) at 37 °C in a 5% CO2 and 95% air humidified atmosphere. Cells were passaged twice per week following a 5-min incubation in PBS containing 0.2 g/L EDTA (Invitrogen, Carlsbad, CA).
(§2) CHO cells (ATCC) were transiently transfected with plasmids encoding hKV1.1, hKV1.2, hKV10.1, hKCa3.1, hTRPA1, or hNaV1.7 using Lipofectamine 2000 (Invitrogen, Carlsbad, CA) following the manufacturer’s protocol, then cultured under standard conditions. The cells were co-transfected with a plasmid encoding green fluorescent protein (GFP) at a molar ratio of 10:1 except for hKV1.1, hKV1.2, and hKCa3.1 for which GFP-tagged ion channel vectors were used. Currents were recorded 24–36 h after transfection. […] HEK 293 cells stably expressing the hKv11.1 channel (hERG, hKCNH2 gene, a kind gift from H. Wulff, University of California, Davis, CA) and mKCa1.1 channel (BKCa, hKCNMA1, a kind gift from C. Beeton, Baylor College of Medicine, Houston, TX) were used. hTRPV1 channels were expressed in a stable manner in CHO cells. Transfected cells were washed twice with 2 mL of ECS (see below) and re-plated onto 35-mm polystyrene cell culture dishes (Cellstar, Greiner Bio-One). hKV1.3 currents were recorded from activated peripheral blood mononuclear cells (PBMCs, see below) 3–4 days after activation. Human veinous blood was obtained from anonymised healthy donors. […]
(§3) Conventional whole-cell patch-clamp electrophysiology was used to record ionic currents. […] Data were analysed using Prism 8 (GraphPad, CA, USA) and ClampFit 10.5 software (Molecular Devices Inc., Sunnyvale, CA). […] For hKCa3.1, hTRPA1 and hTRPV1, the reversal potential for K^+ was determined and only those currents were analysed for which the reversal potential fell into the range of the theoretical reversal potential ± 5 mV (− 86.5 ± 5 mV for KCa3.1, and 0 ± 5 mV for hTRPA1 and hTRPV1).

hKV1.1 [1] = format: cell-based, human
Protocol: as §1, §2, §3

hKV1.3 [2] = format: cell-based, human
Protocol: as §2, with “donors. PBMCs were isolated using Histopaque1077 (Sigma-Aldrich Hungary, Budapest, Hungary) density gradient centrifugation. Cells obtained were resuspended in RPMI 1640 medium containing 10% foetal calf serum (Sigma-Aldrich Hungary, Budapest, Hungary), 100 μg/mL penicillin, 100 μg/mL streptomycin, and 2 mM L-glutamine, seeded in a 24-well culture plate at a density of 5–6 × 10^5 cells/mL, and grown in a 5% CO2 incubator at 37 °C for 3–5 days.” for “donors.”
as §3

mKCa1.1 channel [3] = format: cell-based
Protocol: as §1, §2, §3

hKV1.1 [4] = details: read-out: Kd (positive control concentration equivalent to Kd); KV1.1; no reference given; cited from earlier work
Protocol: (§4) Voltage protocols: For measurement of hKV1.1–1.3 and hKV10.1, currents, voltage steps to + 50 mV, were applied from a holding potential of − 120 mV every 15 or 30 s and the peak current was measured. Channels were activated by a series of depolarisation pulses to + 50 mV from a holding potential of − 120 mV. For KV1.1, 50-ms-long activating stimuli were used every 15 s. Due to the highly variable activation kinetics of KV1.2 [145] 200-ms-long pulses were applied every 15 s to maximise the open probability of the channel.

hKV1.3 [5] = details: read-out: Kd (positive control concentration equivalent to Kd); KV1.3; no reference given; cited from earlier work
Protocol: as §4

mKCa1.1 channel [6] = details: read-out: Kd (positive control concentration equivalent to Kd); KCa1.1; no reference given; cited from earlier work
Protocol: as §4

hKV1.2 = target: T1, hKV1.2 (Homo sapiens, UniProt P16389); experiment: Whole-cell patch-clamp, hKV1.2 in transiently transfected CHO cells; format: cell-based; design: reduction in current amplitude, positive control: dose or concentration left out as unconfirmed; details: […] nM, KV1.2
T1 construct: GFP; expressed in transfected cells; host or cells: CHO cells (ATCC), transient transfection with Lipofectamine 2000
Protocol: as §1
CHO cells (ATCC) were transiently transfected with plasmids encoding hKV1.1, hKV1.2, hKV10.1, hKCa3.1, hTRPA1, or hNaV1.7 using Lipofectamine 2000 (Invitrogen, Carlsbad, CA) following the manufacturer’s protocol, then cultured under standard conditions. The cells were co-transfected with a plasmid encoding green fluorescent protein (GFP) at a molar ratio of 10:1 except for hKV1.1, hKV1.2, and hKCa3.1 for which GFP-tagged ion channel vectors were used. Currents were recorded 24–36 h after transfection. […] HEK 293 cells stably expressing the hKv11.1 channel (hERG, hKCNH2 gene, a kind gift from H. Wulff, University of California, Davis, CA) and mKCa1.1 channel (BKCa, hKCNMA1, a kind gift from C. Beeton, Baylor College of Medicine, Houston, TX) were used. hTRPV1 channels were expressed in a stable manner in CHO cells. Transfected cells were washed twice with 2 mL of ECS (see below) and re-plated onto 35-mm polystyrene cell culture dishes (Cellstar, Greiner Bio-One). hKV1.3 currents were recorded from activated peripheral blood mononuclear cells (PBMCs, see below) 3–4 days after activation. Human veinous blood was obtained from anonymised healthy donors. PBMCs were isolated using Histopaque1077 (Sigma-Aldrich Hungary, Budapest, Hungary) density gradient centrifugation. Cells obtained were resuspended in RPMI 1640 medium containing 10% foetal calf serum (Sigma-Aldrich Hungary, Budapest, Hungary), 100 μg/mL penicillin, 100 μg/mL streptomycin, and 2 mM L-glutamine, seeded in a 24-well culture plate at a density of 5–6 × 10^5 cells/mL, and grown in a 5% CO2 incubator at 37 °C for 3–5 days. Phytohemagglutinin A (PHA, Sigma-Aldrich Hungary, Budapest, Hungary) was added to the medium at 10 μg/mL to amplify the KV1.3 expression. Cells were washed gently twice with 2 mL of ECS for the patch-clamp experiments.
Conventional whole-cell patch-clamp electrophysiology was used to record ionic currents. Micropipettes were pulled in four stages using a Flaming Brown automatic pipette puller (Sutter Instruments, San Rafael, CA) from Borosilicate Standard Wall with Filament aluminium–silicate glass (Harvard Apparatus Co., Holliston, MA) with tip diameters between 0.5 and 1 μm and heat polished to a tip resistance of 2–8 MΩ. All measurements were carried out by using Axopatch 200B amplifier connected to a personal computer using Axon Digidata 1550A data acquisition hardware (Molecular Devices, Sunnyvale, CA). In general, the holding potential was − 120 mV. Records were discarded when a leak at the holding potential was > 10% of the peak current at the test potential. Series resistance compensation up to 70% was used to minimise voltage errors and achieve proper voltage-clamp conditions. Experiments were performed at room temperature (20–24 °C). Data were analysed using Prism 8 (GraphPad, CA, USA) and ClampFit 10.5 software (Molecular Devices Inc., Sunnyvale, CA). Before analysis, whole-cell current traces were corrected for ohmic leakage and digitally filtered with a three-point boxcar smoothing filter. For hKCa3.1, hTRPA1 and hTRPV1, the reversal potential for K^+ was determined and only those currents were analysed for which the reversal potential fell into the range of the theoretical reversal potential ± 5 mV (− 86.5 ± 5 mV for KCa3.1, and 0 ± 5 mV for hTRPA1 and hTRPV1).

T1 sequence (P16389 whole entry): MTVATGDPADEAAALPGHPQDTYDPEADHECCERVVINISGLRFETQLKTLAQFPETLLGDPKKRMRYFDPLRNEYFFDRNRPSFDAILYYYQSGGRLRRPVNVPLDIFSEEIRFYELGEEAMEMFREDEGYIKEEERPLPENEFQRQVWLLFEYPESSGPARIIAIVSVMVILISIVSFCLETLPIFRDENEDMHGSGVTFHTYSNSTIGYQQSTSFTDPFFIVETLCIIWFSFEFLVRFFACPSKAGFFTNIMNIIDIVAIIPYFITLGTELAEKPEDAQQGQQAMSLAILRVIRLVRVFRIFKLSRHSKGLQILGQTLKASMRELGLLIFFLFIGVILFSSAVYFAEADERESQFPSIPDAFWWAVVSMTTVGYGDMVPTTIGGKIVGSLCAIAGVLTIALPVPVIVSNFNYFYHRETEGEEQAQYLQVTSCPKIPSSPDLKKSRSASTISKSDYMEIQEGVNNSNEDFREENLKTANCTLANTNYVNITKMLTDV

## COc1ccc(CCN2CCC(Nc3nc4ccccc4n3Cc3ccc(F)cc3)CC2)cc1 [Astemizole, astemizole, reference compound]
hKV10.1
  reduction in current amplitude, positive control: ~50%

## CC[N+](CC)(CC)CC [TEA+, tetraethylammonium, reference compound]
hKV1.1 [1]
  reduction in current amplitude, positive control: ~50%
hKV1.3 [2]
  reduction in current amplitude, positive control: ~50%
mKCa1.1 channel [3]
  reduction in current amplitude, positive control: ~50%
hKV1.1 [4]
  pKd: 3.52
hKV1.3 [5]
  pKd: 2.00
mKCa1.1 channel [6]
  pKd: 2.00

## charybdotoxin [ChTx, reference compound]
hKV1.2
  reduction in current amplitude, positive control: ~50%
